Experiment [1] concerns serum level of PTH (1-34+1-84). Nature of the experiment: PTH measurement on intact rats (serum PTH by IRMA after oral administration). The experiment is classed as in vivo, rat. The note with it: for inhibition in vivo at 30 mg/kg: Rattus norvegicus, 0.5 h, oral, male Sprague-Dawley rats fasted 16 h, serum 30 min after dosing, read-out: % PTH reduction at 30 min. relative to the untreated group (intact rat). How it is done:
I—PTH Measurement on Intact Rats
After fasting for 16 hours, some male rats (Sprague-Dawley, 250-300 g, Charles River France or CERJ) received an oral administration of the compounds to be tested or their vehicle. 30 min. after this bolus, the animals were slaughtered by decapitation using a guillotine. The arterial and venous blood was collected at 4° C. and centrifuged cold, then the sera were frozen at −20° C. After thawing, the serum level of PTH (1-34+1-84) was measured by a radioimmunology test (IRMA kit, rat, Immutopics).

Experiment [2] has as its system serum level of PTH (1-34+1-84). Nature of the experiment: PTH measurement in rats with chronic renal failure (5/6 nephrectomy). The experiment is classed as in vivo, rat. The note with it: oral, dose 10 mg/kg, 5/6 nephrectomised rats, ten days after nephrectomy, fasted 16 h, serum 30 min after dosing. From the text: II—Rats with Chronic Renal Failure
Chronic renal failure (CRF) was induced in male rats (220-250 g, Sprague-Dawley, CERJ) by ablation of ⅚ of the total renal mass. After anaesthesia (Imalgene 1000), the rats were subjected to exeresis of the right kidney and ablation of both ends of the left kidney, representing approximately ⅔ of the organ).
The incision was cauterised by application of dry ice. To compensate for the loss of blood volume, the animals received an intravenous injection of physiological serum. Two days after the procedure and for the remainder of the trial, the rats were fed with a standard diet (UAR or Safe) and drank phosphate-enriched (1.2%) Volvic® water at will. The procedure was carried out either at the supplier's or at the laboratory. Ten days after nephrectomy, the animals which had been fasting for 16 hours entered the trial. The compounds to be tested or their vehicle were administered orally 30 min. prior to sacrifice. The arterial and venous blood was at 4° C. after decapitation using a guillotine and was centrifuged cold. The sera were frozen a −20° C. After thawing, the serum level of PTH (1-34+1-84) was measured by a radioimmunology test (IRMA kit, rat, Immutopics).

Where a name gives a salt, the structure may show the parent alone.

Turning to `Cn1nnc(-c2cccc(NC(=O)N(CCC(c3ccccc3)c3ccccc3)CCN3CCOCC3)c2)n1` (single isomer, unassigned) [Example 85, 1-(3,3-diphenylpropyl)-3-[3-(2-methyl-2H-tetrazol-5-yl)phenyl]-1-(2-morpholin-4-ylethyl)urea], the inhibition in vivo at 30 mg/kg in experiment [1] was found to be 88%. For the same molecule, the “% PTH reduction at 30 min. relative to the untreated group (CRF rat)” value in experiment [2] is 70%.
Turning to `COC(=O)c1cccc(NC(=O)N(CCC(c2ccccc2)c2ccccc2)CCN2CCOCC2)c1` [Example 1, 3-[3-(3,3-diphenylpropyl)-3-(2-morpholin-4-ylethyl)ureido]benzoic acid methyl ester], the inhibition in vivo at 30 mg/kg in experiment [1] was 56%.
As to `CC(C)(C)OC(=O)c1cccc(NC(=O)N(CCC(c2ccccc2)c2ccccc2)CCN2CCOCC2)c1` [Example 40, 3-[3-(3,3-diphenylpropyl)-3-(2-morpholin-4-ylethyl)ureido]benzoic acid tertbutyl ester hydrochloride], in experiment [1], the inhibition in vivo at 30 mg/kg was determined as 21%.
For `CCC(=O)c1cccc(NC(=O)N(CCC(c2ccccc2)c2ccccc2)CCN2CCOCC2)c1` [Example 42], in experiment [1], the inhibition in vivo at 30 mg/kg is 69%.
As to `O=C(Nc1ccc(Cl)c(C(F)(F)F)c1)N(CCC(c1ccccc1)c1ccccc1)CCN1CCOCC1` [Example 43, 3-(4-chloro-3-trifluoromethylphenyl)-1-(3,3-diphenylpropyl)-1-(2-morpholin-4-ylethyl)urea hydrochloride], the inhibition in vivo at 30 mg/kg in experiment [1] came to 43%.
The same measure, in the same setting: the value for `CC(C)OC(=O)c1cccc(NC(=O)N(CCC(c2ccccc2)c2ccccc2)CCN2CCOCC2)c1` [Example 48, 3-[3-(3,3-diphenylpropyl)-3-(2-morpholin-4-ylethyl)ureido]benzoic acid isopropyl ester hydrochloride] was 32%.
Still for that read-out and setting: the figure for `CC(C)OC(=O)c1cc(NC(=O)N(CCC(c2ccccc2)c2ccccc2)CCN2CCOCC2)ccc1Cl` [Example 51, 2-chloro-5-[3-(3,3-diphenylpropyl)-3-(2-morpholin-4-ylethyl)ureido]benzoic acid isopropyl ester hydrochloride] is 13%.
In the case of `Cl.O=C(Nc1cccc(-c2cnco2)c1)N(CCC(c1ccccc1)c1ccccc1)CCN1CCOCC1` [Example 68, 1-(3,3-diphenylpropyl)-1-(2-morpholin-4-ylethyl)-3-(3-oxazol-5-ylphenyl)urea hydrochloride], the inhibition in vivo at 30 mg/kg in experiment [1] was determined as 94%. In addition, the “PTH level reduced relative to the control group” value in experiment [1] (oral administration, dose of 30 mg/kg, intact rats, 30 min) is reported as 94%. The “% PTH reduction at 30 min. relative to the untreated group (CRF rat)” value in experiment [2] was determined as 67%.
On to `O=C(Nc1cccc(-c2ccco2)c1)N(CCC(c1ccccc1)c1ccccc1)CCN1CCOCC1` [Example 76A, 1-(3,3-diphenylpropyl)-3-(3-furan-2-ylphenyl)-1-(2-morpholin-4-ylethyl)urea hydrochloride], for which the inhibition in vivo at 30 mg/kg in experiment [1] came out at 14%.

For the origin of these results see patent US7875609B2, “Urea derivatives, processes for their preparation, their use as medicaments, and pharmaceutical compositions containing them” (Galapagos Sasu, priority 2005, dated 2011).
